Values after ≈ are worked out from the molar mass of the structure shown. Read-outs that look alike come from different tables or passages of the source.
Columns and labels:
NRS119 = assay: MIC/MBC broth microdilution, NRS119; format: cell-based; details: Staphylococcus aureus
Method: (§1) Determination of minimum inhibitory concentration (MIC). The MICs of the lead thiazole compound (compound 1a) and nine derivatives tested against all 18 MRSA strains were determined, in triplicate samples, using the broth microdilution method in accordance with the recommendations contained in the CLSI guidelines.

VISA LIM 3 (NRS37) = assay: MIC/MBC broth microdilution, NRS37 (VISA LIM 3); format: cell-based; details: Staphylococcus aureus, Table 8, NRS37 (VISA); for MBC: read-out: MBC; for MIC: read-out: MIC
Method: as §1

MRSA ATCC 43300 = assay: MIC/MBC broth microdilution, MRSA ATCC 43300; format: cell-based, Staphylococcus aureus; details: Staphylococcus aureus
Method: as §1

MRSA USA400 (NRS123) = assay: MIC/MBC broth microdilution, NRS123 (USA400); format: cell-based; details: Staphylococcus aureus, Table 8, NRS123; for MBC: read-out: MBC; for MIC: read-out: MIC
Method: as §1

[1] = system: MRSA ATCC 700699 (NRS1, VISA); assay: MIC/MBC broth microdilution, NRS1 (ATCC 700699); format: cell-based; details: Staphylococcus aureus
Method: as §1

MRSA USA500 (NRS385) = assay: MIC/MBC broth microdilution, NRS385 (USA500); format: cell-based; details: Staphylococcus aureus, Table 8, NRS385; for MBC: read-out: MBC; for MIC: read-out: MIC
Method: as §1

NRS107 = assay: MIC/MBC broth microdilution, NRS107; format: cell-based; details: Staphylococcus aureus; for MBC: Table 8, read-out: MBC; for MIC: Table 8, read-out: MIC
Method: as §1

VISA HIP07256 (NRS19) = assay: MIC/MBC broth microdilution, NRS19 (VISA HIP07256); format: cell-based; details: Staphylococcus aureus, Table 8, NRS19 (VISA); for MBC: read-out: MBC; for MIC: read-out: MIC
Method: as §1

NRS194 = assay: MIC/MBC broth microdilution, NRS194; format: cell-based; details: Staphylococcus aureus; for MBC: Table 8, read-out: MBC; for MIC: Table 8, read-out: MIC
Method: as §1

MRSA NRS384 (USA300) = assay: MIC/MBC broth microdilution, NRS384 (USA300); format: cell-based; details: Staphylococcus aureus, Table 8, NRS384; for MBC: read-out: MBC; for MIC: read-out: MIC
Method: as §1

VRSA (VRS10) = assay: MIC/MBC broth microdilution, VRSA (VRS10); format: cell-based, Staphylococcus aureus; details: Staphylococcus aureus, Table 7, VRSA (VRS10)
Method: as §1

[2] = Table 8, ATCC 43300, read-out: MBC
[3] = Table 8, ATCC 43300, read-out: MIC
[4] = Table 8, NRS1 (VISA), read-out: MBC
[5] = Table 8, NRS1 (VISA), triplicates, 20 hours, read-out: MIC

CCCCC#Cc1ccc(-c2nc(C)c(/C(C)=N/NC(=N)N)s2)cc1 [Compound R1, (E)-2-(1-(2-(4-(hex-1-yn-1-yl)phenyl)-4-methylthiazol-5-yl)ethylidene)hydrazinecarboximidamide]
MBC (NRS119; Table 8, NRS119, read-out: MBC): 4 µM (≈ 1.41 µg/mL) | MIC (NRS119; Table 8, NRS119, read-out: MIC): 4 µM (≈ 1.41 µg/mL) | MBC (VISA LIM 3 (NRS37)): 4 µM (≈ 1.41 µg/mL) | MIC (VISA LIM 3 (NRS37)): 4 µM (≈ 1.41 µg/mL) | MIC (MRSA ATCC 43300; Table 4, MRSA ATCC 43300, 64 μM down to 0.5 μM, 37° C., 19 hours, read-out: Minimum Inhibitory Concentration): 4 µM (≈ 1.41 µg/mL) | MBC (MRSA ATCC 43300; [2]): 4 µM (≈ 1.41 µg/mL) | MIC (MRSA ATCC 43300; [3]): 4 µM (≈ 1.41 µg/mL) | MBC (MRSA USA400 (NRS123)): 4 µM (≈ 1.41 µg/mL) | MIC (MRSA USA400 (NRS123)): 4 µM (≈ 1.41 µg/mL) | MBC [1, 4]: 2 µM (≈ 0.707 µg/mL) | MIC [1, 5]: 2 µM (≈ 0.707 µg/mL) | MBC (MRSA USA500 (NRS385)): 4 µM (≈ 1.41 µg/mL) | MIC (MRSA USA500 (NRS385)): 4 µM (≈ 1.41 µg/mL) | MBC (NRS107): 4 µM (≈ 1.41 µg/mL) | MIC (NRS107): 4 µM (≈ 1.41 µg/mL) | MBC (VISA HIP07256 (NRS19)): 4 µM (≈ 1.41 µg/mL) | MIC (VISA HIP07256 (NRS19)): 4 µM (≈ 1.41 µg/mL) | MBC (NRS194): 4 µM (≈ 1.41 µg/mL) | MIC (NRS194): 4 µM (≈ 1.41 µg/mL) | MBC (MRSA NRS384 (USA300)): 4 µM (≈ 1.41 µg/mL) | MIC (MRSA NRS384 (USA300)): 4 µM (≈ 1.41 µg/mL)

C/C(=N/NC(=N)N)c1sc(-c2ccc(-c3cccc4ccccc34)cc2)nc1C [Compound M14]
MBC (NRS119; NRS 119 / VISA, Table 7, VISA (NRS119), read-out: Minimum Bactericidal Concentration): 16 µM (≈ 6.39 µg/mL) | MIC (NRS119; NRS 119 / VISA, Table 7, VISA (NRS119), read-out: Minimum Inhibitory Concentration): 4 µM (≈ 1.6 µg/mL) | MBC (NRS119; Table 8, NRS119, read-out: MBC): 4 µM (≈ 1.6 µg/mL) | MIC (NRS119; Table 8, NRS119, read-out: MIC): 4 µM (≈ 1.6 µg/mL) | MBC (VISA LIM 3 (NRS37)): 4 µM (≈ 1.6 µg/mL) | MIC (VISA LIM 3 (NRS37)): 4 µM (≈ 1.6 µg/mL) | MBC (VRSA (VRS10); read-out: Minimum Bactericidal Concentration): 8 µM (≈ 3.2 µg/mL) | MIC (VRSA (VRS10); read-out: Minimum Inhibitory Concentration): 8 µM (≈ 3.2 µg/mL) | MIC (MRSA ATCC 43300; Table 6, MRSA ATCC 43300, 128 μM down to 1.0 μM, 20 hours, read-out: MIC): 4 µM (≈ 1.6 µg/mL) | MBC (MRSA ATCC 43300; Table 6, MRSA ATCC 43300, plating on TSA, 20 hour incubation, read-out: MBC): 8 µM (≈ 3.2 µg/mL) | MBC (MRSA ATCC 43300; Table 7, MRSA (ATCC 43300), read-out: Minimum Bactericidal Concentration): 16 µM (≈ 6.39 µg/mL) | MIC (MRSA ATCC 43300; Table 7, MRSA (ATCC 43300), read-out: Minimum Inhibitory Concentration): 8 µM (≈ 3.2 µg/mL) | MBC (MRSA ATCC 43300; [2]): 4 µM (≈ 1.6 µg/mL) | MIC (MRSA ATCC 43300; [3]): 4 µM (≈ 1.6 µg/mL) | MBC (MRSA USA400 (NRS123)): 4 µM (≈ 1.6 µg/mL) | MIC (MRSA USA400 (NRS123)): 4 µM (≈ 1.6 µg/mL) | MBC ([1]; Table 7, VISA (NRS1), read-out: Minimum Bactericidal Concentration): 4 µM (≈ 1.6 µg/mL) | MIC ([1]; Table 7, VISA (NRS1), read-out: Minimum Inhibitory Concentration): 2 µM (≈ 0.799 µg/mL) | MBC [1, 4]: 4 µM (≈ 1.6 µg/mL) | MIC [1, 5]: 4 µM (≈ 1.6 µg/mL) | MBC (MRSA USA500 (NRS385)): 8 µM (≈ 3.2 µg/mL) | MIC (MRSA USA500 (NRS385)): 4 µM (≈ 1.6 µg/mL) | MBC (NRS107): 4 µM (≈ 1.6 µg/mL) | MIC (NRS107): 4 µM (≈ 1.6 µg/mL) | MBC (VISA HIP07256 (NRS19)): 4 µM (≈ 1.6 µg/mL) | MIC (VISA HIP07256 (NRS19)): 4 µM (≈ 1.6 µg/mL) | MBC (NRS194): 4 µM (≈ 1.6 µg/mL) | MIC (NRS194): 4 µM (≈ 1.6 µg/mL) | MBC (MRSA NRS384 (USA300)): 4 µM (≈ 1.6 µg/mL) | MIC (MRSA NRS384 (USA300)): 4 µM (≈ 1.6 µg/mL)

Source: patent US9353072B2, “Antimicrobial substituted thiazoles and methods of use” (Purdue Research Foundation, priority 2012, dated 2016)
